# Test results as given in ChEMBL document CHEMBL5543174, “A Nonbactericidal Anionic Antimicrobial Peptide Provides Prophylactic and Therapeutic Efficacies against Bacterial Infections in Mice by Immunomodulatory-Antithrombotic Duality” (J Med Chem, 2024).
# The source made the active and inactive calls. No cut-off for these calls is given here.
# What was measured:
# [1] = system: Peritoneal macrophage cell; assay: Induction of phagocytosis in mouse Peritoneal macrophage cultured with Carbapenem-resistant Escherichia coli assessed as number of surviving engulfed bacteria at 50 ug/ml incubated for 1.5 hrs followed by bacterial exposure for 1 hr by plate counting method; type: functional; conditions: dose 50 µg/ml; time 2.5 hrs
# [2] = system: Peritoneal macrophage cell; assay: Induction of phagocytosis in mouse Peritoneal macrophage cultured with Methicillin-resistant Staphylococcus aureus assessed as number of surviving engulfed bacteria at 25 ug/ml incubated for 1.5 hrs followed by bacterial exposure for 1 hr by plate counting method; type: functional; conditions: dose 25 µg/ml; time 2.5 hrs
# [3] = system: Mus musculus; assay: Antithrombotic activity in FeCl3-induced carotid arterial thrombosis C57BL/6 mouse model assessed as increase in blood flow by measuring time to occlusion at 10 mg/kg,SC administration observed for 30 mins by laser speckle perfusion imaging analysis; type: functional; conditions: 0.5 h
# [4] = system: Peritoneal macrophage cell; assay: Induction of phagocytosis in mouse Peritoneal macrophage cultured with Carbapenem-resistant Escherichia coli assessed as number of surviving engulfed bacteria at 100 ug/ml incubated for 1.5 hrs followed by bacterial exposure for 1 hr by plate counting method; type: functional; conditions: dose 100 µg/ml; time 2.5 hrs
# [5] = system: Platelet; assay: Anti-platelet aggregation activity in human Platelet rich plasma assessed as inhibition of ADP-induced aggregation at 100 ug/ml preincubated with compound for 5 mins followed by ADP addition by platelet aggregometry relative to control; type: functional; set-up: scale not given: the % may be the effect or the level left; conditions: dose 100 µg/ml
# [6] = system: Peritoneal macrophage cell; assay: Induction of chemotaxis in mouse Peritoneal macrophage assessed as upregulation of CXCL1 production at 100 ug/ml preincubated with PTX followed by compound addition by ELISA; type: functional; conditions: dose 100 µg/ml
# [7] = system: Peritoneal macrophage cell; assay: Induction of phagocytosis in mouse Peritoneal macrophage cultured with Methicillin-resistant Staphylococcus aureus assessed as number of surviving engulfed bacteria at 50 ug/ml incubated for 1.5 hrs followed by bacterial exposure for 1 hr by plate counting method; type: functional; conditions: dose 50 µg/ml; time 2.5 hrs
# [8] = system: Peritoneal macrophage; assay: Induction of chemotaxis in mouse Peritoneal macrophage assessed as upregulation of MCP-1 production at 100 ug/ml preincubated with PTX followed by compound addition by ELISA; type: functional; conditions: dose 100 µg/ml
# [9] = system: Peritoneal macrophage cell; assay: Induction of phagocytosis in mouse Peritoneal macrophage cultured with Methicillin-resistant Staphylococcus aureus assessed as number of surviving engulfed bacteria at 100 ug/ml incubated for 1.5 hrs followed by bacterial exposure for 1 hr by plate counting method; type: functional; conditions: dose 100 µg/ml; time 2.5 hrs
# [10] = system: Platelet; assay: Anti-platelet aggregation activity in human Platelet rich plasma assessed as inhibition of PMA-induced aggregation at 100 ug/ml preincubated with compound for 5 mins followed by PMA addition by platelet aggregometry relative to control; type: functional; set-up: scale not given: the % may be the effect or the level left; conditions: dose 100 µg/ml
# [11] = system: Peritoneal macrophage; assay: Induction of chemotaxis in mouse Peritoneal macrophage assessed as upregulation of CXCL2 production at 100 ug/ml preincubated with PTX followed by compound addition by ELISA; type: functional; conditions: dose 100 µg/ml
# [12] = system: Platelet; assay: Anti-platelet aggregation activity in human Platelet rich plasma assessed as inhibition of collagen-induced aggregation at 100 ug/ml preincubated with compound for 5 mins followed by collagen addition by platelet aggregometry relative to control; type: functional; set-up: scale not given: the % may be the effect or the level left; conditions: dose 100 µg/ml
# [13] = system: Peritoneal macrophage; assay: Induction of phagocytosis in mouse Peritoneal macrophage cultured with Carbapenem-resistant Escherichia coli assessed as number of surviving engulfed bacteria at 25 ug/ml incubated for 1.5 hrs followed by bacterial exposure for 1 hr by plate counting method; type: functional; conditions: dose 25 µg/ml; time 2.5 hrs
# [14] = system: Candida albicans; assay: Antimicrobial activity against Candida albicans ATCC 2002 assessed as reduction in microbial colony forming unit at 2 times MIC incubated for 1 to 4 hrs by time-kill kinetics based analysis; type: functional, organism-based; conditions: time 1-4 hrs
# [15] = system: Escherichia coli; assay: Antimicrobial activity against Escherichia coli ATCC 25922 assessed as reduction in microbial colony forming unit at 2 times MIC incubated for 1 to 4 hrs by time-kill kinetics based analysis; type: functional, organism-based; conditions: time 1-4 hrs
# [16] = system: Escherichia coli; assay: Antimicrobial activity against Carbapenem-resistant Escherichia coli assessed as reduction in microbial colony forming unit at 2 times MIC incubated for 1 to 4 hrs by time-kill kinetics based analysis; type: functional, organism-based; conditions: time 1-4 hrs
# [17] = system: Candida albicans; assay: Antimicrobial activity against Candida albicans ATCC 2002 assessed as reduction in metabolic activity at 2 times MIC incubated for 1 to 4 hrs by CCK-8 assay; type: functional, organism-based; conditions: time 1-4 hrs
# [18] = system: Staphylococcus aureus; assay: Antimicrobial activity against Methicillin-resistant Staphylococcus aureus assessed as reduction in microbial colony forming unit at 2 times MIC incubated for 1 to 4 hrs by time-kill kinetics based analysis; type: functional, organism-based; conditions: time 1-4 hrs
# [19] = system: Staphylococcus aureus; assay: Antimicrobial activity against Methicillin-resistant Staphylococcus aureus assessed as reduction in metabolic activity at 2 times MIC incubated for 1 to 4 hrs by CCK-8 assay; type: functional, organism-based; conditions: time 1-4 hrs
# [20] = system: Staphylococcus aureus; assay: Antimicrobial activity against Staphylococcus aureus ATCC 25923 assessed as reduction in metabolic activity at 2 times MIC incubated for 1 to 4 hrs by CCK-8 assay; type: functional, organism-based; conditions: time 1-4 hrs
# [21] = system: Escherichia coli; assay: Antimicrobial activity against Carbapenem-resistant Escherichia coli assessed as reduction in metabolic activity at 2 times MIC incubated for 1 to 4 hrs by CCK-8 assay; type: functional, organism-based; conditions: time 1-4 hrs
# [22] = system: Staphylococcus aureus; assay: Antimicrobial activity against Staphylococcus aureus ATCC 25923 assessed as reduction in microbial colony forming unit at 2 times MIC incubated for 1 to 4 hrs by time-kill kinetics based analysis; type: functional, organism-based; conditions: time 1-4 hrs
# [23] = system: Escherichia coli; assay: Antimicrobial activity against Escherichia coli ATCC 25922 assessed as reduction in metabolic activity at 2 times MIC incubated for 1 to 4 hrs by CCK-8 assay; type: functional, organism-based; conditions: time 1-4 hrs
# [24] = Acute toxicity in C57BL/6 mouse assessed as change in creatinine level in serum at 10 mg/kg,ip administration measured after 24 hrs; type: organism-based; conditions: in vivo
# [25] = Acute toxicity in C57BL/6 mouse assessed as change in ALT level in serum at 30 mg/kg,ip administration measured after 24 hrs; type: organism-based; conditions: in vivo
# [26] = Acute toxicity in C57BL/6 mouse assessed as change in creatinine level in serum at 30 mg/kg,ip administration measured after 24 hrs; type: organism-based; conditions: in vivo
# [27] = system: Erythrocyte; assay: Hemolytic activity in rabbit erythrocytes at 25 to 200 ug/ml incubated for 30 mins by absorbance based analysis; type: toxicity, cell-based, Oryctolagus cuniculus; conditions: 0.5 h, dose 25-200 µg/ml
# [28] = system: Peritoneal macrophage; assay: Cytotoxicity against mouse Peritoneal macrophage at <= 200 ug/ml incubated for 24 hrs by CCK-8 assay; type: toxicity, cell-based; conditions: dose < 200 µg/ml
# [29] = Acute toxicity in C57BL/6 mouse assessed as change in ALT level in serum at 10 mg/kg,ip administration measured after 24 hrs; type: organism-based; conditions: in vivo
# [30] = system: Erythrocyte; assay: Hemolytic activity in mouse erythrocytes at 25 to 200 ug/ml incubated for 30 mins by absorbance based analysis; type: toxicity, cell-based; conditions: 0.5 h, dose 25-200 µg/ml
# [31] = system: Neutrophil; assay: Cytotoxicity against mouse bone marrow derived neutrophil at <= 200 ug/ml incubated for 24 hrs by CCK-8 assay; type: toxicity, cell-based; conditions: dose < 200 µg/ml
structure (smiles),measurement,setting,value
CC[C@H](C)[C@H](NC(=O)[C@@H]1CSSC[C@H](NC(=O)[C@H](CCC(=O)O)NC(=O)[C@@H](NC(=O)[C@H](CCCCN)NC(=O)[C@H](Cc2c[nH]cn2)NC(=O)[C@@H](NC(=O)[C@H](CCCCN)NC(=O)[C@H](CCC(=O)O)NC(=O)[C@H](C)NC(=O)[C@H](CCC(=O)O)NC(=O)[C@H](CCC(=O)O)NC(=O)[C@H](CCC(=O)O)NC(=O)[C@H](C)N)[C@@H](C)O)[C@@H](C)O)C(=O)N[C@@H](CC(C)C)C(=O)N[C@@H](CCC(=O)O)C(=O)N1)C(=O)N[C@@H](Cc1ccccc1)C(=O)N[C@H](C(=O)N[C@@H](CC(C)C)C(=O)N[C@@H](CC(C)C)C(=O)N1CCC[C@H]1C(=O)N1CCC[C@H]1C(=O)N[C@@H](C)C(=O)O)[C@@H](C)O [listing 1 of 2 here],Activity,[1],245
same,Activity,[2],793
same,Time,[3],28.5 min
same,Activity,[4],234
same,Activity,[5],54.2%
same,Activity,[6],56.8%
same,Activity,[7],532
same,Activity,[8],52.8%
same,Activity,[9],244
same,Activity,[10],78.01%
same,Activity,[11],63.2%
same,Activity,[12],57.72%
same,Activity,[13],279
C[C@@H](O)[C@H]1C(=O)N2C(C(=O)O)=C(S[C@@H]3CN[C@H](C(=O)N(C)C)C3)[C@H](C)[C@H]12,Activity,[14],Active
same,Activity,[15],Active
same,Activity,[16],Active
same,Activity,[17],Active
same,Activity,[18],Active
same,Activity,[19],Active
same,Activity,[20],Active
same,Activity,[21],Active
same,Activity,[22],Active
same,Activity,[23],Active
CC[C@H](C)[C@H](NC(=O)[C@@H]1CSSC[C@H](NC(=O)[C@H](CCC(=O)O)NC(=O)[C@@H](NC(=O)[C@H](CCCCN)NC(=O)[C@H](Cc2c[nH]cn2)NC(=O)[C@@H](NC(=O)[C@H](CCCCN)NC(=O)[C@H](CCC(=O)O)NC(=O)[C@H](C)NC(=O)[C@H](CCC(=O)O)NC(=O)[C@H](CCC(=O)O)NC(=O)[C@H](CCC(=O)O)NC(=O)[C@H](C)N)[C@@H](C)O)[C@@H](C)O)C(=O)N[C@@H](CC(C)C)C(=O)N[C@@H](CCC(=O)O)C(=O)N1)C(=O)N[C@@H](Cc1ccccc1)C(=O)N[C@H](C(=O)N[C@@H](CC(C)C)C(=O)N[C@@H](CC(C)C)C(=O)N1CCC[C@H]1C(=O)N1CCC[C@H]1C(=O)N[C@@H](C)C(=O)O)[C@@H](C)O [listing 2 of 2 here],Activity,[24],Non-Toxic
same,Activity,[25],Non-Toxic
same,Activity,[26],Non-Toxic
same,Activity,[27],Non-Toxic
same,Activity,[28],Non-Toxic
same,Activity,[29],Non-Toxic
same,Activity,[30],Non-Toxic
same,Activity,[31],Non-Toxic
CC[C@H](C)[C@H](NC(=O)[C@H](CCCCN)NC(=O)[C@H](CCC(=O)O)NC(=O)[C@H](CCCCN)NC(=O)[C@H](CO)NC(=O)[C@H](CCCCN)NC(=O)[C@H](CCCNC(=N)N)NC(=O)[C@H](Cc1ccccc1)NC(=O)[C@H](Cc1ccccc1)NC(=O)[C@H](CC(=O)O)NC(=O)CNC(=O)[C@H](CC(C)C)NC(=O)[C@@H](N)CC(C)C)C(=O)NCC(=O)N[C@@H](CCCCN)C(=O)N[C@@H](CCC(=O)O)C(=O)N[C@@H](Cc1ccccc1)C(=O)N[C@@H](CCCCN)C(=O)N[C@@H](CCCNC(=N)N)C(=O)N[C@H](C(=O)N[C@H](C(=O)N[C@@H](CCC(N)=O)C(=O)N[C@@H](CCCNC(=N)N)C(=O)N[C@H](C(=O)N[C@@H](CCCCN)C(=O)N[C@@H](CC(=O)O)C(=O)N[C@@H](Cc1ccccc1)C(=O)N[C@@H](CC(C)C)C(=O)N[C@@H](CCCNC(=N)N)C(=O)N[C@@H](CC(N)=O)C(=O)N[C@@H](CC(C)C)C(=O)N[C@H](C(=O)N1CCC[C@H]1C(=O)N[C@@H](CCCNC(=N)N)C(=O)N[C@H](C(=O)N[C@@H](CCC(=O)O)C(=O)N[C@@H](CO)C(=O)O)[C@@H](C)O)C(C)C)[C@@H](C)CC)C(C)C)[C@@H](C)CC,Activity,[14],Active
same,Activity,[15],Active
same,Activity,[16],Active
same,Activity,[17],Active
same,Activity,[18],Active
same,Activity,[19],Active
same,Activity,[20],Active
same,Activity,[21],Active
same,Activity,[22],Active
same,Activity,[23],Active
